Source: ChEMBL document CHEMBL5034010, “Novel Cephalosporin Conjugates Display Potent and Selective Inhibition of Imipenemase-Type Metallo-β-Lactamases” (J Med Chem, 2021)
Values after ≈ are worked out from the molar mass of the structure shown. Active and inactive are the calls of the source. The rule behind the calls is not given here.

Key:
Enterobacter cloacae [1] = experiment: Antibacterial activity against beta-lactamase IMP1 producing Enterobacter cloacae clinical isolate measured upto 128 ug/ml; format: functional, organism-based
Escherichia coli [2] = experiment: Inhibition of Metallo-beta-lactamase NDM-1 in Escherichia coli clinical isolate assessed as MIC for meropenem antibacterial activity at 64 ug/ml (reference value: 32 ug/ml); details: dose 64.0 µg/ml
Escherichia coli [3] = experiment: Inhibition of Metallo-beta-lactamase VIM-2 in Escherichia coli clinical isolate assessed as fold reduction in meropenem MIC at 32 ug/ml; details: dose 32.0 µg/ml
[4] = Inhibition of Escherichia coli beta-lactamase NDM-1 using nitrocefin chromogenic substrate measured after 15 to 60 min at 25 degC by microplate reader
Enterobacter cloacae [5] = experiment: Inhibition of Metallo-beta-lactamase IMP-1 in Enterobacter cloacae clinical isolate assessed as fold reduction in meropenem MIC at 32 ug/ml; details: dose 32.0 µg/ml
Enterobacter cloacae [6] = experiment: Inhibition of Metallo-beta-lactamase IMP-1 in Enterobacter cloacae clinical isolate assessed as MIC for meropenem antibacterial activity at 128 ug/ml (Rvb =16 ug/ml); details: dose 128.0 µg/ml
Escherichia coli [7] = experiment: Inhibition of Metallo-beta-lactamase NDM-1 in Escherichia coli clinical isolate assessed as fold reduction in meropenem MIC at 32 ug/ml; details: dose 32.0 µg/ml
Escherichia coli [8] = experiment: Inhibition of Metallo-beta-lactamase VIM-2 in Escherichia coli clinical isolate assessed as fold reduction in meropenem MIC at 128 ug/ml; details: dose 128.0 µg/ml
Enterobacter cloacae [9] = experiment: Inhibition of Metallo-beta-lactamase IMP-1 in Enterobacter cloacae clinical isolate assessed as MIC for meropenem antibacterial activity at 32 ug/ml (Rvb =16 ug/ml); details: dose 32.0 µg/ml
Escherichia coli [10] = experiment: Inhibition of Metallo-beta-lactamase NDM-1 in Escherichia coli clinical isolate assessed as fold reduction in meropenem MIC at 64 ug/ml; details: dose 64.0 µg/ml
Klebsiella pneumoniae [11] = experiment: Substrate activity at Klebsiella pneumoniae beta-lactamase IMP-28 assessed as compound hydrolysis by measuring Kcat/Km by Michaelis-Menten analysis
Escherichia coli [12] = experiment: Inhibition of Metallo-beta-lactamase NDM-1 in Escherichia coli clinical isolate assessed as MIC for meropenem antibacterial activity at 32 ug/ml (reference value: 32 ug/ml); details: dose 32.0 µg/ml
Enterobacter cloacae [13] = experiment: Inhibition of Metallo-beta-lactamase IMP-1 in Enterobacter cloacae clinical isolate assessed as fold reduction in meropenem MIC at 64 ug/ml; details: dose 64.0 µg/ml
Klebsiella pneumoniae [14] = experiment: Inhibition of Metallo-beta-lactamase IMP-28 in Klebsiella pneumoniae clinical isolate assessed as fold reduction in meropenem MIC at 128 ug/ml; details: dose 128.0 µg/ml
Escherichia coli [15] = experiment: Inhibition of Metallo-beta-lactamase NDM-1 in Escherichia coli clinical isolate assessed as fold reduction in meropenem MIC at 128 ug/ml; details: dose 128.0 µg/ml
Escherichia coli [16] = experiment: Antibacterial activity against beta-lactamase VIM2 producing Escherichia coli clinical isolate measured upto 128 ug/ml; format: functional, organism-based
Klebsiella pneumoniae [17] = experiment: Substrate activity at Klebsiella pneumoniae beta-lactamase IMP-28 assessed as compound hydrolysis by measuring Km by Michaelis-Menten analysis
Escherichia coli [18] = experiment: Inhibition of Metallo-beta-lactamase VIM-2 in Escherichia coli clinical isolate assessed as fold reduction in meropenem MIC at 64 ug/ml; details: dose 64.0 µg/ml
Klebsiella pneumoniae [19] = experiment: Inhibition of Metallo-beta-lactamase IMP-28 in Klebsiella pneumoniae clinical isolate assessed as fold reduction in meropenem MIC at 32 ug/ml; details: dose 32.0 µg/ml
Klebsiella pneumoniae [20] = experiment: Inhibition of Metallo-beta-lactamase IMP-28 in Klebsiella pneumoniae clinical isolate assessed as MIC for meropenem antibacterial activity at 128 ug/ml (reference value: 2 ug/ml); details: dose 128.0 µg/ml
Klebsiella pneumoniae [21] = experiment: Antibacterial activity against beta-lactamase IMP-28 producing Klebsiella pneumoniae clinical isolate measured upto 128 ug/ml; format: functional, organism-based
Klebsiella pneumoniae [22] = experiment: Inhibition of Metallo-beta-lactamase IMP-28 in Klebsiella pneumoniae clinical isolate assessed as fold reduction in meropenem MIC at 64 ug/ml; details: dose 64.0 µg/ml
[23] = Inhibition of Enterobacter cloacae IMP-1 using nitrocefin chromogenic substrate measured after 15 to 60 min at 25 degC by microplate reader
Escherichia coli [24] = experiment: Antibacterial activity against beta-lactamase NDM1 producing Escherichia coli clinical isolate measured upto 128 ug/ml; format: functional, organism-based
Escherichia coli [25] = experiment: Inhibition of Metallo-beta-lactamase VIM-2 in Escherichia coli clinical isolate assessed as MIC for meropenem antibacterial activity at 32 ug/ml (reference value: 4 ug/ml); details: dose 32.0 µg/ml
Escherichia coli [26] = experiment: Inhibition of Metallo-beta-lactamase VIM-2 in Escherichia coli clinical isolate assessed as MIC for meropenem antibacterial activity at 64 ug/ml (reference value: 4 ug/ml); details: dose 64.0 µg/ml
Klebsiella pneumoniae [27] = experiment: Substrate activity at Klebsiella pneumoniae beta-lactamase IMP-28 assessed as compound hydrolysis by measuring Kcat by Michaelis-Menten analysis
Klebsiella pneumoniae [28] = experiment: Inhibition of Metallo-beta-lactamase IMP-28 in Klebsiella pneumoniae clinical isolate assessed as MIC for meropenem antibacterial activity at 64 ug/ml (reference value: 2 ug/ml); details: dose 64.0 µg/ml
Escherichia coli [29] = experiment: Inhibition of Metallo-beta-lactamase NDM-1 in Escherichia coli clinical isolate assessed as MIC for meropenem antibacterial activity at 128 ug/ml (reference value: 32 ug/ml); details: dose 128.0 µg/ml
Enterobacter cloacae [30] = experiment: Inhibition of Metallo-beta-lactamase IMP-1 in Enterobacter cloacae clinical isolate assessed as MIC for meropenem antibacterial activity at 64 ug/ml (Rvb =16 ug/ml); details: dose 64.0 µg/ml
Enterobacter cloacae [31] = experiment: Inhibition of Metallo-beta-lactamase IMP-1 in Enterobacter cloacae clinical isolate assessed as fold reduction in meropenem MIC at 128 ug/ml; details: dose 128.0 µg/ml
[32] = Inhibition of Klebsiella pneumoniae beta-lactamase IMP-28 using nitrocefin chromogenic substrate measured after 15 to 60 min at 25 degC by microplate reader
Klebsiella pneumoniae [33] = experiment: Inhibition of Metallo-beta-lactamase IMP-28 in Klebsiella pneumoniae clinical isolate assessed as MIC for meropenem antibacterial activity at 32 ug/ml (reference value: 2 ug/ml); details: dose 32.0 µg/ml
Escherichia coli [34] = experiment: Inhibition of Metallo-beta-lactamase VIM-2 in Escherichia coli clinical isolate assessed as MIC for meropenem antibacterial activity at 128 ug/ml (reference value: 4 ug/ml); details: dose 128.0 µg/ml
[35] = Inhibition of Escherichia coli beta-lactamase VIM-2 using nitrocefin chromogenic substrate measured after 15 to 60 min at 25 degC by microplate reader
Enterobacter cloacae [36] = experiment: Inhibition of Metallo-beta-lactamase IMP-1 in Enterobacter cloacae clinical isolate assessed as MIC for meropenem antibacterial activity at 32 ug/ml (reference value: 32 ug/ml); details: dose 32.0 µg/ml
Enterobacter cloacae [37] = experiment: Inhibition of Metallo-beta-lactamase IMP-1 in Enterobacter cloacae clinical isolate assessed as MIC for meropenem antibacterial activity at 64 ug/ml (reference value: 32 ug/ml); details: dose 64.0 µg/ml
Enterobacter cloacae [38] = experiment: Inhibition of Metallo-beta-lactamase IMP-1 in Enterobacter cloacae clinical isolate assessed as MIC for meropenem antibacterial activity at 128 ug/ml (reference value: 32 ug/ml); details: dose 128.0 µg/ml

| Structure (SMILES) | MIC (Escherichia coli [2]) | fold change (FC) (Escherichia coli [3]) | fold change (FC) (Enterobacter cloacae [5]) | fold change (FC) (Escherichia coli [7]) | fold change (FC) (Escherichia coli [8]) | fold change (FC) (Escherichia coli [10]) | MIC (Escherichia coli [12]) | fold change (FC) (Enterobacter cloacae [13]) | fold change (FC) (Klebsiella pneumoniae [14]) | fold change (FC) (Escherichia coli [15]) | fold change (FC) (Escherichia coli [18]) | fold change (FC) (Klebsiella pneumoniae [19]) | MIC (Klebsiella pneumoniae [20]) | fold change (FC) (Klebsiella pneumoniae [22]) | MIC (Escherichia coli [25]) | MIC (Escherichia coli [26]) | MIC (Klebsiella pneumoniae [28]) | MIC (Escherichia coli [29]) | fold change (FC) (Enterobacter cloacae [31]) | MIC (Klebsiella pneumoniae [33]) | further results |
| --- | --- | --- | --- | --- | --- | --- | --- | --- | --- | --- | --- | --- | --- | --- | --- | --- | --- | --- | --- | --- | --- |
| O=C(O)CSCC1=C(C(=O)O)N2C(=O)[C@@H](NC(=O)Cc3ccccc3)[C@H]2SC1 | 16 µg/mL (≈ 37.9 µM) | 2 | 2 | 2 | 4 | 2 | 16 µg/mL (≈ 37.9 µM) | 2 | 16 | 4 | 2 | 8 | 0.125 µg/mL (≈ 0.296 µM) | 8 | 2 µg/mL (≈ 4.73 µM) | 2 µg/mL (≈ 4.73 µM) | 0.25 µg/mL (≈ 0.592 µM) | 8 µg/mL (≈ 18.9 µM) | 4 | 0.25 µg/mL (≈ 0.592 µM) | Activity (Enterobacter cloacae [1]): inactive; IC50 [4]: 72 µM; MIC (Enterobacter cloacae [6]): 4 µg/mL (≈ 9.47 µM); MIC (Enterobacter cloacae [9]): 8 µg/mL (≈ 18.9 µM); kcat/Km (Klebsiella pneumoniae [11]): 169000 M⁻¹ s⁻¹; Activity (Escherichia coli [16]): inactive; Km (Klebsiella pneumoniae [17]): 219 µM; Activity (Klebsiella pneumoniae [21]): inactive; IC50 [23]: > 100 µM; Activity (Escherichia coli [24]): inactive; kcat (Klebsiella pneumoniae [27]): 37 s⁻¹; MIC (Enterobacter cloacae [30]): 8 µg/mL (≈ 18.9 µM); IC50 [32]: > 100 µM; MIC (Escherichia coli [34]): 1 µg/mL (≈ 2.37 µM); IC50 [35]: 53 µM |
| CC1=C(C(=O)O)N2C(=O)[C@@H](NC(=O)Cc3ccccc3)[C@H]2SC1 | 16 µg/mL (≈ 48.1 µM) | 2 | 1 | 2 | 4 | 2 | 16 µg/mL (≈ 48.1 µM) | 1 | 8 | 2 | 2 | 2 | 0.25 µg/mL (≈ 0.752 µM) | 4 | 2 µg/mL (≈ 6.02 µM) | 2 µg/mL (≈ 6.02 µM) | 0.5 µg/mL (≈ 1.5 µM) | 16 µg/mL (≈ 48.1 µM) | 1 | 1 µg/mL (≈ 3.01 µM) | Activity (Enterobacter cloacae [1]): inactive; MIC (Enterobacter cloacae [6]): 16 µg/mL (≈ 48.1 µM); MIC (Enterobacter cloacae [9]): 16 µg/mL (≈ 48.1 µM); kcat/Km (Klebsiella pneumoniae [11]): 59000 M⁻¹ s⁻¹; Activity (Escherichia coli [16]): inactive; Km (Klebsiella pneumoniae [17]): 392 µM; Activity (Klebsiella pneumoniae [21]): inactive; IC50 [23]: > 100 µM; Activity (Escherichia coli [24]): inactive; kcat (Klebsiella pneumoniae [27]): 23.3 s⁻¹; MIC (Enterobacter cloacae [30]): 16 µg/mL (≈ 48.1 µM); IC50 [32]: > 100 µM; MIC (Escherichia coli [34]): 1 µg/mL (≈ 3.01 µM); IC50 [35]: 57 µM |
| O=C(O)c1cccc(C(=O)O)n1 [DIPICOLINIC ACID] | 0.5 µg/mL (≈ 2.99 µM) | > 64 | 2 | 64 | > 64 | 64 | 0.5 µg/mL (≈ 2.99 µM) | 32 | > 64 | > 64 | > 64 | 16 | < 0.031 µg/mL | > 64 | < 0.063 µg/mL | < 0.063 µg/mL | < 0.031 µg/mL | < 0.5 µg/mL | 128 | 0.125 µg/mL (≈ 0.748 µM) | IC50 [4]: 10 µM; MIC (Enterobacter cloacae [36]): 16 µg/mL (≈ 95.7 µM); MIC (Enterobacter cloacae [37]): 1 µg/mL (≈ 5.98 µM); MIC (Enterobacter cloacae [38]): 0.25 µg/mL (≈ 1.5 µM); MIC (Escherichia coli [34]): < 0.063 µg/mL; IC50 [35]: 10 µM |
